Source: US12721831B2, “Tetrahydrocurcuminoid-metal complexes, manufacturing methods thereof, and uses thereof” (Probioticsmart, LLC, priority 2020, dated 2026)

Tests used:
influenza varieties = settings: laboratory cells infected with influenza varieties; cited from earlier work
[1] = 1 gram oral, chicken serum, 280 nm and 425 nm
Description: Three chickens (Rhode Island Red) that were each 2 years old weighing 5 pounds were selected, and 1 ml of blood was removed from the wing vein for baseline measurements. The blood was allowed to clot and the plasma was removed by centrifugation for subsequent baseline analysis. The chickens were allowed to rest overnight. The contents of each of the respective syringes were then administered to separate chickens via the mouth, ensuring that the contents were consumed. Blood was removed at 2, 4, and 24 hours from each bird and allowed to clot.

[2] = DPPH radical scavenging antioxidant assay; format: biochemical; settings: 0.125-0.50 mg/mL in ethanol, 30 min at RT, 517 nm; ranking among the three
Description: The reaction mixture was mixed thoroughly and left in the dark at RT for 30 min. The absorbance of the mixture was measured spectrophotometrically at 517 nm. Trolox was used as reference. Percentage DPPH radical scavenging activity was calculated by the following equation:
[formula] • Acs: Blank 1—Blank 2 • As: Absorbance of samples—Blank 2 Then % of inhibition was plotted against concentration.

[3] = cited from earlier work

Row | Compound | reduction of viral replication (influenza varieties) | HPLC peaks in serum at the 2-hour, 4-hour, and 24-hour timepoints [1] | antioxidant activity (DPPH radical scavenging, FIG. 16) [2] | water solubility [3]
1 | COc1cc(/C=C/C(=O)CC(=O)/C=C/c2ccc(O)c(OC)c2)ccc1O [curcumin] | over 90% |  |  | 
2 | COc1cc(CCC(=O)CC(=O)CCc2ccc(O)c(OC)c2)ccc1O [tetrahydrocurcumin] |  | could be seen | higher antioxidant activity than curcumin but less than the tetrahydrocurcumin-Zn-curcumin | not very water soluble
